Laboratory results: ChEMBL document CHEMBL1201862, “PubChem BioAssay data set” (2004)
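Grown in 96-well plates, cells were treated for 48 hours with each compound at five concentrations. Insufficient inhibition: endpoint recorded as highest concentration tested. At the GI50, growth is halved.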 Calls of active or inactive are those of the source. No stated cut-off is given here; in the data, active = GI50 up to about 1.1 µM and inactive = higher.

Experiments:
Experiment in all cases: NCI anticancer screen, dose series, 48 h
786-0 = test system: 786-0
A498 = test system: A498
A549 = test system: A549
ACHN = test system: ACHN
BT-549 = test system: BT-549
CAKI-1 = test system: CAKI-1
CCRF-CEM = test system: CCRF-CEM
COLO 205 = test system: COLO 205
DU-145 = test system: DU-145
HCC 2998 = test system: HCC 2998
HCT-116 = test system: HCT-116
HCT-15 = test system: HCT-15
HL-60 = test system: HL-60
HOP-62 = test system: HOP-62
HOP-92 = test system: HOP-92
HT-29 = test system: HT-29
Hs-578T = test system: Hs-578T
IGROV-1 = test system: IGROV-1
K562 = test system: K562
LOX IMVI = test system: LOX IMVI
M14 = test system: M14
MCF7 = test system: MCF7
MDA-MB-231 = test system: MDA-MB-231
MDA-MB-435 = test system: MDA-MB-435
MDA-N = test system: MDA-N
Malme-3M = test system: Malme-3M
NCI-H226 = test system: NCI-H226
NCI-H23 = test system: NCI-H23
NCI-H460 = test system: NCI-H460
NCI-H522 = test system: NCI-H522
NCI/ADR-RES = test system: NCI/ADR-RES
OVCAR-3 = test system: OVCAR-3
OVCAR-4 = test system: OVCAR-4
OVCAR-5 = test system: OVCAR-5
OVCAR-8 = test system: OVCAR-8
PC-3 = test system: PC-3
RXF 393 = test system: RXF 393
SF-268 = test system: SF-268
SF-295 = test system: SF-295
SF-539 = test system: SF-539
SK-MEL-28 = test system: SK-MEL-28
SK-MEL-2 = test system: SK-MEL-2
SK-MEL-5 = test system: SK-MEL-5
SK-OV-3 = test system: SK-OV-3
SN12C = test system: SN12C
SNB-19 = test system: SNB-19
SNB-75 = test system: SNB-75
SR = test system: SR
SW-620 = test system: SW-620
TK-10 = test system: TK-10
U-251 = test system: U-251
UACC-257 = test system: UACC-257
UACC-62 = test system: UACC-62
UO-31 = test system: UO-31
EKVX = test system: EKVX
KM12 = test system: KM12
MOLT-4 = test system: MOLT-4
RPMI-8226 = test system: RPMI-8226
T47D = test system: T47D

For `Cc1nc2ccc(Cl)cc2c(-n2ccnc2)c1CCn1ccnc1`, the GI50 (786-0) was 1.69 µM (inactive), the GI50 (A498) was 21.5 µM (inactive) and the GI50 (A549) was 34.9 µM (inactive). For the same molecule, the GI50 (ACHN) was 15.7 µM (inactive), the GI50 (BT-549) was 19.8 µM (inactive) and the GI50 (CAKI-1) was 63.1 µM (inactive). The GI50 (CCRF-CEM) was 18 µM (inactive), the GI50 (COLO 205) was 18 µM (inactive) and the GI50 (DU-145) was 31.9 µM (inactive). The GI50 (HCC 2998) was 49.8 µM (inactive), the GI50 (HCT-116) was 23.8 µM (inactive) and the GI50 (HCT-15) was 22.7 µM. The GI50 (HL-60) was 23.7 µM (inactive), the GI50 (HOP-62) was 33.3 µM (inactive) and the GI50 (HOP-92) was 15.9 µM (inactive). For the same molecule, the GI50 (HT-29) was 17.3 µM (inactive), the GI50 (Hs-578T) was 12.9 µM (inactive) and the GI50 (IGROV-1) was 26.1 µM (inactive). The GI50 (K562) was 23.2 µM (inactive), the GI50 (LOX IMVI) was 21 µM (inactive) and the GI50 (M14) was 27.8 µM (inactive). The GI50 (MCF7) was 32.3 µM (inactive), the GI50 (MDA-MB-231) was 17.8 µM (inactive) and the GI50 (MDA-MB-435) was 32.1 µM (inactive). The GI50 (MDA-N) was 25.5 µM (inactive), the GI50 (Malme-3M) was 31.1 µM (inactive) and the GI50 (NCI-H226) was 16.4 µM (inactive). The GI50 (NCI-H23) was 27.1 µM (inactive), the GI50 (NCI-H460) was 23.2 µM (inactive) and the GI50 (NCI-H522) was 22.4 µM (inactive). The GI50 (NCI/ADR-RES) was 2.03 µM (inactive), the GI50 (OVCAR-3) was 32.1 µM (inactive) and the GI50 (OVCAR-4) was 18.9 µM (inactive). The GI50 (OVCAR-5) was 21.5 µM (inactive), the GI50 (OVCAR-8) was 1.75 µM (inactive) and the GI50 (PC-3) was 22.1 µM (inactive). The GI50 (RXF 393) was 14.1 µM (inactive), the GI50 (SF-268) was 30.2 µM (inactive) and the GI50 (SF-295) was 34.2 µM (inactive). For the same molecule, the GI50 (SF-539) was 61.4 µM (inactive), the GI50 (SK-MEL-28) was 29.9 µM (inactive) and the GI50 (SK-MEL-2) was 19.2 µM (inactive). For the same molecule, the GI50 (SK-MEL-5) was 20.7 µM (inactive), the GI50 (SK-OV-3) was 31 µM (inactive) and the GI50 (SN12C) was 34 µM (inactive). The GI50 (SNB-19) was 53.7 µM (inactive), the GI50 (SNB-75) was 20 µM (inactive) and the GI50 (SR) was 0.678 µM (active). For the same molecule, the GI50 (SW-620) was 39.4 µM (inactive), the GI50 (TK-10) was 30.2 µM (inactive) and the GI50 (U-251) was 40.5 µM (inactive). The GI50 (UACC-257) was 18.8 µM (inactive), the GI50 (UACC-62) was 16.3 µM (inactive) and the GI50 (UO-31) was 14.5 µM (inactive).
`CCC1(O)CC(OC2CC(N(C)C)C(OC3CC(O)C(OC4OC(C)C(=O)C=C4N)C(C)O3)C(C)O2)c2c(cc3c(c2O)C(=O)c2c(O)cccc2C3=O)C1C(=O)OC` (centres undefined) was tested, and the GI50 (786-0) was 0.00254 µM (active), the GI50 (A549) was 0.00272 µM (active) and the GI50 (ACHN) was 0.0206 µM (active). For the same molecule, the GI50 (CAKI-1) was 0.00604 µM (active), the GI50 (CCRF-CEM) was 0.00169 µM (active) and the GI50 (COLO 205) was 0.00429 µM (active). For the same molecule, the GI50 (DU-145) was 0.00637 µM (active), the GI50 (EKVX) was 0.0224 µM (active) and the GI50 (HCC 2998) was 0.0153 µM (active). For the same molecule, the GI50 (HCT-116) was < 0.001 µM (active), the GI50 (HCT-15) was 0.241 µM and the GI50 (HL-60) was 0.0177 µM (active). The GI50 (HOP-62) was 0.0184 µM (active), the GI50 (HOP-92) was 0.0746 µM (active) and the GI50 (HT-29) was 0.00889 µM (active). For the same molecule, the GI50 (Hs-578T) was 0.12 µM (active), the GI50 (IGROV-1) was 0.00302 µM (active) and the GI50 (K562) was < 0.001 µM (active). For the same molecule, the GI50 (KM12) was 0.00525 µM (active), the GI50 (LOX IMVI) was 0.046 µM (active) and the GI50 (M14) was 0.0345 µM (active). The GI50 (MCF7) was 0.01 µM (active), the GI50 (MDA-MB-231) was 0.29 µM (active) and the GI50 (MDA-MB-435) was 0.00583 µM (active). For the same molecule, the GI50 (MDA-N) was 0.00682 µM (active), the GI50 (MOLT-4) was 0.0015 µM (active) and the GI50 (Malme-3M) was 0.0508 µM (active). For the same molecule, the GI50 (NCI-H226) was 0.115 µM (active), the GI50 (NCI-H23) was 0.104 µM (active) and the GI50 (NCI-H460) was < 0.001 µM (active). The GI50 (NCI-H522) was 0.0355 µM (active), the GI50 (NCI/ADR-RES) was 1.25 µM (inactive) and the GI50 (OVCAR-3) was 0.129 µM (active). For the same molecule, the GI50 (OVCAR-4) was 0.01 µM (active), the GI50 (OVCAR-5) was 0.0678 µM (active) and the GI50 (OVCAR-8) was 0.00415 µM (active). The GI50 (PC-3) was 0.00566 µM (active), the GI50 (RPMI-8226) was 0.00153 µM (active) and the GI50 (SF-268) was 0.199 µM (active). For the same molecule, the GI50 (SF-295) was 0.0016 µM (active), the GI50 (SF-539) was 0.0501 µM (active) and the GI50 (SK-MEL-28) was 0.0272 µM (active). For the same molecule, the GI50 (SK-MEL-2) was 0.0221 µM (active), the GI50 (SK-MEL-5) was 0.00469 µM (active) and the GI50 (SK-OV-3) was 0.0518 µM (active). For the same molecule, the GI50 (SN12C) was 0.158 µM (active), the GI50 (SNB-19) was 0.0282 µM (active) and the GI50 (SNB-75) was 0.0402 µM (active). The GI50 (SR) was 0.00625 µM (active), the GI50 (SW-620) was < 0.001 µM (active) and the GI50 (T47D) was 0.0292 µM (active). For the same molecule, the GI50 (TK-10) was 0.06 µM (active), the GI50 (U-251) was 0.00385 µM (active) and the GI50 (UACC-257) was 0.0211 µM (active). The GI50 (UACC-62) was 0.0121 µM (active) and the GI50 (UO-31) was 0.167 µM (active).
In the case of `C=C(C)C1CC=C(C)C(=O)C1` (centres undefined) [CARVONE], the GI50 (786-0) was > 100 µM (inactive), the GI50 (A549) was > 100 µM (inactive) and the GI50 (ACHN) was > 100 µM (inactive). For the same molecule, the GI50 (CAKI-1) was > 100 µM (inactive), the GI50 (CCRF-CEM) was > 100 µM (inactive) and the GI50 (COLO 205) was > 100 µM (inactive). For the same molecule, the GI50 (DU-145) was > 100 µM (inactive), the GI50 (EKVX) was > 100 µM (inactive) and the GI50 (HCC 2998) was > 100 µM (inactive). For the same molecule, the GI50 (HCT-116) was > 100 µM (inactive), the GI50 (HCT-15) was > 100 µM and the GI50 (HL-60) was > 100 µM (inactive). The GI50 (HOP-62) was > 100 µM (inactive), the GI50 (HOP-92) was > 100 µM (inactive) and the GI50 (HT-29) was > 100 µM (inactive). The GI50 (Hs-578T) was > 100 µM (inactive), the GI50 (IGROV-1) was > 100 µM (inactive) and the GI50 (K562) was > 100 µM (inactive). For the same molecule, the GI50 (KM12) was > 100 µM (inactive), the GI50 (LOX IMVI) was > 100 µM (inactive) and the GI50 (M14) was > 100 µM (inactive). The GI50 (MCF7) was > 100 µM (inactive), the GI50 (MDA-MB-231) was > 100 µM (inactive) and the GI50 (MDA-MB-435) was > 100 µM (inactive). The GI50 (MDA-N) was > 100 µM (inactive), the GI50 (MOLT-4) was > 100 µM (inactive) and the GI50 (Malme-3M) was > 100 µM (inactive). For the same molecule, the GI50 (NCI-H226) was > 100 µM (inactive), the GI50 (NCI-H23) was > 100 µM (inactive) and the GI50 (NCI-H460) was > 100 µM (inactive). The GI50 (NCI-H522) was > 100 µM (inactive), the GI50 (NCI/ADR-RES) was > 100 µM (inactive) and the GI50 (OVCAR-3) was > 100 µM (inactive). For the same molecule, the GI50 (OVCAR-4) was > 100 µM (inactive), the GI50 (OVCAR-5) was > 100 µM (inactive) and the GI50 (OVCAR-8) was > 100 µM (inactive). For the same molecule, the GI50 (PC-3) was > 100 µM (inactive), the GI50 (RPMI-8226) was > 100 µM (inactive) and the GI50 (SF-268) was > 100 µM (inactive). For the same molecule, the GI50 (SF-295) was > 100 µM (inactive), the GI50 (SF-539) was > 100 µM (inactive) and the GI50 (SK-MEL-28) was > 100 µM (inactive). The GI50 (SK-MEL-2) was > 100 µM (inactive), the GI50 (SK-MEL-5) was > 100 µM (inactive) and the GI50 (SN12C) was > 100 µM (inactive). For the same molecule, the GI50 (SNB-19) was > 100 µM (inactive), the GI50 (SNB-75) was > 100 µM (inactive) and the GI50 (SR) was > 100 µM (inactive). For the same molecule, the GI50 (SW-620) was > 100 µM (inactive), the GI50 (T47D) was > 100 µM (inactive) and the GI50 (TK-10) was > 100 µM (inactive). For the same molecule, the GI50 (U-251) was > 100 µM (inactive), the GI50 (UACC-257) was > 100 µM (inactive) and the GI50 (UO-31) was > 100 µM (inactive).
